“Also recorded” adds a separate entry of the source. Each block holds one compound with its values, some of them ahead of it.
Key:
glycogenin = molecular target: T1, glycogenin (Bos taurus, UniProt Q29RN2); experiment: Glycogenin assay: transfer of glucose or xylose from the UDP-sugar to exogenous glycoside acceptors; format: biochemical, beef; details: for activity as glucose acceptor substrate for glycogenin: UDP-[3H]glucose donor, 60 min at 37° C.; for inhibition of transfer of [3H]glucose to DBM by glycogenin: inhibitor 0.1-0.5 mM, acceptor DBM
T1 construct: chromatography of a 105,000×g supernatant from a homogenate of beef kidney on DE-53 cellulose; tissue local slaughter house; host or cells: beef kidney
T1 sequence (Q29RN2 1-333): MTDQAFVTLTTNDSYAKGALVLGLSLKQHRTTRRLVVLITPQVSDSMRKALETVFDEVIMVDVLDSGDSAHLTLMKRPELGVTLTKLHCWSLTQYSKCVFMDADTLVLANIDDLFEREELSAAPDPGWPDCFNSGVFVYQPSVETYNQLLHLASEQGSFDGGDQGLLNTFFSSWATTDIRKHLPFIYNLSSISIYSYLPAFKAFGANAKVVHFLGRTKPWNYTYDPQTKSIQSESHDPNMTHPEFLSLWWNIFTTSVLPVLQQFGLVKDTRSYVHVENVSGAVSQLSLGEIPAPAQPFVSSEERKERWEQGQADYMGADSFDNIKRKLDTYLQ
From the text: Glycogenin is a self-glycosylating glycosyltransferase which can be obtained from muscle and which can also be obtained from rat and beef kidney. The enzyme is capable of transferring glucose and xylose from the respective UDP-sugar substrates to itself and also of transferring these sugars to exogenous acceptors, such as dodecyl-β-D-maltoside, tetradecyl-β-D-maltoside, octyl-β-D-maltoside, octyl-α-D-glucoside and other glycosides, as described herein.
Fresh beef kidney was purchased from a local slaughter house. Purification of glycogenin from kidney involves the following steps: chromatography of a 105,000×g supernatant from a homogenate of beef kidney on DE-53 cellulose, chromatofocusing and chromatography on a column of UDP-glucuronic acid-agarose, which was eluted with cytidine 5'-diphosphate(CDP). […] The protein concentration of the affinity purified enzyme was determined to be 10 μg/ml with the Quantigold protein reagent (Diversified Biotech, Newton Centre, Mass.).
An appropriate sample of UDP-[^3 H] glucose or UDP-[^3 H] xylose (supplied in 70% ethanol by the manufacturer) was evaporated to dryness with a gentle stream of filtered air and dissolved in 50 mM Tris Cl, pH 7.4/75 mM BAL/1.5 mM ATP. […] After incubation for 60 min at 37° C. product formation was measured by either of the two procedures described below.
Product isolation by precipitation with trichloracetic acid. After completed incubation, 1% bovine serum albumin (50 μl) and 10% trichloracetic acid/4% phosphotungstic acid (150 μl) were added, and the mixture was vortexed and kept on ice for at least 15 min. The precipitate was sedimented by centrifugation in a microfuge and washed three times with 5% trichloroacetic acid. The bottom of the tube, containing the pellet, was clipped off with a dog nail clipper and dropped into a 6 ml scintillation vial, the protein was dissolved in 250 μl of 2M NaOH, and, after neutralization with 250 μl of 2M HCl, 4.5 ml of Ecolume was added, and the radioactivity was measured.
Product isolation by adsorption to SepPak C18 cartridges. The reaction mixture was brought to a, volume of 0.5 ml by addition of water and was heated to 100° C. for 1 min. After cooling to room temperature, the mixture was centrifuged, and a 10 μl aliquot was removed for measurement of total radioactivity. The remaining 490 μl was applied with the use of a 10 ml syringe to a SepPak C18 cartridge, which had been preconditioned by washing with 8 ml of 95% ethanol, 8 ml of 70% ethanol, and 20 ml of water. After sample application, the cartridge was washed with 2×9 ml of water, followed by an additional 2 ml portion of water, and adsorbed radioactive material was then eluted with 3×4 ml of 70% ethanol. Typically, no significant radioactivity was found in the last water wash, and most of the bound radioactive material was found in the first ethanol eluate.
Gel electrophoresis and autoradiography. SDS-PAGE was carried out with slight modification of Laemmli (Laemmli, U. K., Nature, 227:680-685 (1970)). A Hoefer vertical slab gel electrophoresis unit (Hoefer Scientific Instruments, San Francisco, Calif.) was used for casting and electrophoresing with a 10% (w/v) acrylamide separating gel and a 4.5% (w/v) acrylamide stacking gel. Reaction mixtures, with total volumes of 75 μl, containing 0.15 μCi (0.26 μM) UDP-[^3 H] glucose, 10 ng of affinity purified enzyme (intact or heat denatured), in the absence and presence of increasing concentrations of DBM were incubated at 37° C. for 60 min. The reaction was terminated by addition of 5 μl of water and 20 μl of sample reducing buffer (5× concentrated) to give final concentrations of 40 mM Tris-Cl, pH 6.8, 1.5% (w/v) SDS, 6% (v/v) glycerol, 100 mM DTT and 0.002% (w/v) bromophenol blue and heated to 100° C. for 3 min. The supernatant was applied to the gel and electrophoresed at 7.5 mA for 16 hours. […]

[1] = molecular target: T2, Rabbit muscle glycogen synthase (Oryctolagus cuniculus, UniProt P13834); experiment: Glycogen synthase assay: glucose transfer from UDP-glucose to acceptor; format: biochemical; details: for rank as glucose acceptor for glycogen synthase: octyl-, dodecyl- and tetradecyl-maltosides compared, with G-6-P
T2 construct: purchased Sigma Chemical Co; host or cells: rabbit muscle
T2 sequence (P13834 1-735): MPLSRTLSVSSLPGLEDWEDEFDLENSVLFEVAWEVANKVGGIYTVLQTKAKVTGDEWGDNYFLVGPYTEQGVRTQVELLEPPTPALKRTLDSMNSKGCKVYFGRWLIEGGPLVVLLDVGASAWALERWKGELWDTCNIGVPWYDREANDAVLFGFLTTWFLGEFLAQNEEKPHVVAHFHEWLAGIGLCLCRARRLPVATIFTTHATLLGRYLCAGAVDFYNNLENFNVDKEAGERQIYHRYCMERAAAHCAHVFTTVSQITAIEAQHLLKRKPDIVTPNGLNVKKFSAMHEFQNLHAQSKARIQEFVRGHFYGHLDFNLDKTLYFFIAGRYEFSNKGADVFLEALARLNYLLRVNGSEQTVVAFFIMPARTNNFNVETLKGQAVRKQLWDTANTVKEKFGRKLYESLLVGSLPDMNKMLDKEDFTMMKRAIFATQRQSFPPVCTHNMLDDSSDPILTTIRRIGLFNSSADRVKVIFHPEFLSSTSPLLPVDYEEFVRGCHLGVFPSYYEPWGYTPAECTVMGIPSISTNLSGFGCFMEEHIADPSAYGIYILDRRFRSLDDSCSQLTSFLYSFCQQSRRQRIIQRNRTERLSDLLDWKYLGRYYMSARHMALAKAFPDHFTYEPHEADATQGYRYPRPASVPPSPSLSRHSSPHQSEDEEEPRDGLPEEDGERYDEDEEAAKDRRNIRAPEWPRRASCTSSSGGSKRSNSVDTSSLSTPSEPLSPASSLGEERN
Description: Rabbit muscle glycogen synthase obtained from Sigma Chemical Co., (7.6 μg) was incubated with 0.45 μCi UDP-[^3 H]glucose (specific activity of 10.4 Ci/mmol), 1 mM UDP-glucose (glucose donor), 10 mM glucose-6-phosphate (the natural activator of glycogen synthase) and 1 mg glycogen (glucose acceptor) in 25 mM EDTA/5 mM DTT/100 mM glycine. NaOH buffer, pH 8.6 in a total volume of 100 μl for 30-240 minutes at 37° C. At different time points, glycogen was precipitated from the reaction mixtures with ethanol and the precipitate washed to remove any unincorporated radiolabel. The glycogen precipitate was then solubilized and counted in a liquid scintillation counter to quantitate the amount of [^3 H]glucose incorporated into glycogen.
Results. When DBM (0.5 mM) replaces glycogen as the glucose acceptor in the incubation mixture, a linear transfer of glucose to DBM with time is seen up to 4 hours, with the glucose transfer amounting to about 20% of the maximal value seen with glycogen (using the SepPak C18 assay).
When glycogen synthase was incubated for 24 hours with G-6-P, UDP-[^3 H]glucose and 0.5 mM DBM, several products of glucose transfer to DBM could be visualized following separation by thin layer chromatography and autoradiography. These products corresponded to the dodecyl-maltotrioside,-tetraoside, -pentaoside, -hexaoside, -heptaoside and higher oligosaccharide derivatives of DBM. […] Therefore, DBM and other suitable glycosides can serve as glucose acceptors for both glycogen synthase and glycogenin to promote glucose disposal in conditions such as hyperglycemia and diabetes mellitus. Providing an abundance of acceptor substrates in tissues, such as liver, which has a smaller number of extremely large glycogen molecules can alleviate the problem of excessive glycogen deposition in the glycogen storage diseases by promoting glucose disposal into more readily handled smaller glucose polymers built on DBM or other glycosides.

- rank as glucose acceptor for glycogen synthase [1]: followed by DBM and tetradecylmaltoside
Compound: CCCCCCCCCCCCCCO[C@@H]1O[C@H](CO)[C@@H](O[C@H]2O[C@H](CO)[C@@H](O)[C@H](O)[C@H]2O)[C@H](O)[C@H]1O [tetradecyl-β-D-maltoside]
- activity as glucose acceptor substrate for glycogenin (glycogenin): capable of serving as acceptor substrates

- activity as glucose acceptor substrate for glycogenin (glycogenin): effective glucose acceptor
Compound: CCCCCCCCO[C@H]1O[C@H](CO)[C@@H](O)[C@H](O)[C@H]1O [Octyl-α-D-glucoside]

- rank as glucose acceptor for glycogen synthase [1]: best acceptor
Compound: CCCCCCCCO[C@@H]1O[C@H](CO)[C@@H](O[C@H]2O[C@H](CO)[C@@H](O)[C@H](O)[C@H]2O)[C@H](O)[C@H]1O [octyl-β-D-maltoside]
- activity as glucose acceptor substrate for glycogenin (glycogenin): capable of serving as acceptor substrates

- xylose acceptor for glycogenin (product formed) (glycogenin; UDP-[3H]xylose as donor substrate): DBM-xylose was formed
- glucose acceptor activity of DBM relative to octyl-β-D-maltoside (glycogenin; comparator octyl-β-D-maltoside): four times better
- glucose acceptor activity of DBM relative to tetradecyl-β-D-maltoside (glycogenin; comparator tetradecyl-β-D-maltoside): twice as active
- glucose transfer relative to maximal value seen with glycogen ([1]; 0.5 mM acceptor replacing glycogen, up to 4 hours, SepPak C18 assay): about 20%
- acceptor concentration giving near-maximal glycogen synthase activity ([1]; 0.1 to 10 mM acceptor, 60 min incubation): less than 0.5 mM
- length of acceptor-linked oligosaccharide products formed by glycogen synthase ([1]; 24 hours with G-6-P, UDP-[3H]glucose, 0.5 mM acceptor, TLC and autoradiography): greater than seven glucose residues
Compound: CCCCCCCCCCCCO[C@@H]1O[C@H](CO)[C@@H](O[C@H]2O[C@H](CO)[C@@H](O)[C@H](O)[C@H]2O)[C@H](O)[C@H]1O [DBM, dodecyl-β-D-maltoside]
- activity as glucose acceptor substrate for glycogenin (glycogenin): dose-dependent fashion; also recorded: best acceptor for glucose

Compound: CCCCCCCCCCO[C@@H]1O[C@H](CO)[C@@H](O[C@H]2O[C@H](CO)[C@@H](O)[C@H](O)[C@H]2O)[C@H](O)[C@H]1O [decyl-β-D-maltoside]
- activity as glucose acceptor substrate for glycogenin (glycogenin): capable of serving as acceptor substrates

- inhibition of transfer of [3H]glucose to DBM by glycogenin (glycogenin; listed as CDP): dose-dependent inhibition
Compound: Nc1ccn([C@@H]2O[C@H](COP(=O)(O)OP(=O)(O)O)[C@@H](O)[C@H]2O)c(=O)n1 [Cytidine 5'-diphosphate, reference compound]
- inhibition of transfer of [3H]glucose to DBM by glycogenin (glycogenin): inhibited the transfer of [^3 H]glucose to DBM by glycogenin in a dose dependent manner

Compound: CCCCCCCCS[C@@H]1O[C@H](CO)[C@@H](O)[C@H](O)[C@H]1O [octyl-β-D-thioglucoside]
- activity as glucose acceptor substrate for glycogenin (glycogenin): more active as a glucose acceptor than octyl-β-D-glucoside

- activity as glucose acceptor substrate for glycogenin (glycogenin): much lower activity
Compound: dodecyl-β-D-sucrose

- activity as glucose acceptor substrate for glycogenin (glycogenin): activities are low
Compound: CCCCCCCCO[C@@H]1O[C@H](CO)[C@@H](O)[C@H](O)[C@H]1O [octyl-β-D-glucoside]

From US5817634A, “Methods of treating diabetes mellitus and clycogen storage disease” (The UAB Research Foundation, priority 1994, dated 1998)
